The kinase profiling compilation of Christmann-Franck et al. (2016)

How the values were obtained:
Assay in all cases: radiometric filter-binding kinase assay, Kinase HotSpot
Settings in all cases: compound 0.5 µM; ATP 10 µM
AKT3 (human) = AKT3 (human) (UniProt Q9Y243)
CSF1R (human) = CSF1R (human) (UniProt P07333)
SRC (human) = SRC (human) (UniProt P12931)
MAP3K7 TAB1 (human) = MAP3K7 TAB1 (human) (UniProt O43318+Q15750)
CLK3 (human) = CLK3 (human) (UniProt P49761)
EPHB4 (human) = EPHB4 (human) (UniProt P54760)
PRKD3 (human) = PRKD3 (human) (UniProt O94806)
MAPK1 (human) = MAPK1 (human) (UniProt P28482)
MINK1 (human) = MINK1 (human) (UniProt Q8N4C8)
MAPK8 (human) = MAPK8 (human) (UniProt P45983)
Sequence of MAPK8 (human) (P45983 whole entry, looked up): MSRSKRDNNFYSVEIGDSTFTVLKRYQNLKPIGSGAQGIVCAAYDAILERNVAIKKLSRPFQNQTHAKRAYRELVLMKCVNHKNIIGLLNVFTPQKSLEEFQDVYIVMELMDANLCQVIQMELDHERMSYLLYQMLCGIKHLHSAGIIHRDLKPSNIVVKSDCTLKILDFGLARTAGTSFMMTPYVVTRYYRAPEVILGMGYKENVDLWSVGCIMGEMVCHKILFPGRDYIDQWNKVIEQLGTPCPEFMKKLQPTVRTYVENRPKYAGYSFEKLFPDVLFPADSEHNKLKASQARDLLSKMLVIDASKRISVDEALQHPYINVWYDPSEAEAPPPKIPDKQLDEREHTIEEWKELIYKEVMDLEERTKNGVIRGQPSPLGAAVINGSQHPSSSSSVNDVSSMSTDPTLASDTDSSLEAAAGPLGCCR

NTRK3 (human) = NTRK3 (human) (UniProt Q16288)
ROS1 (human) = ROS1 (human) (UniProt P08922)
RIPK2 (human) = RIPK2 (human) (UniProt O43353)
MLTK (human) = MLTK (human) (UniProt Q9NYL2)
TAOK2 (human) = TAOK2 (human) (UniProt Q9UL54)
ROCK1 (human) = ROCK1 (human) (UniProt Q13464)
CAMK2A (human) = CAMK2A (human) (UniProt Q9UQM7)
CDK5 CDK5R1 p35 (human) = CDK5 CDK5R1 p35 (human) (UniProt Q00535+Q15078)
RPS6KA4 KD2 (human) = RPS6KA4 KD2 (human) (UniProt O75676)
Sequence of RPS6KA4 KD2 (human) (O75676 whole entry, looked up): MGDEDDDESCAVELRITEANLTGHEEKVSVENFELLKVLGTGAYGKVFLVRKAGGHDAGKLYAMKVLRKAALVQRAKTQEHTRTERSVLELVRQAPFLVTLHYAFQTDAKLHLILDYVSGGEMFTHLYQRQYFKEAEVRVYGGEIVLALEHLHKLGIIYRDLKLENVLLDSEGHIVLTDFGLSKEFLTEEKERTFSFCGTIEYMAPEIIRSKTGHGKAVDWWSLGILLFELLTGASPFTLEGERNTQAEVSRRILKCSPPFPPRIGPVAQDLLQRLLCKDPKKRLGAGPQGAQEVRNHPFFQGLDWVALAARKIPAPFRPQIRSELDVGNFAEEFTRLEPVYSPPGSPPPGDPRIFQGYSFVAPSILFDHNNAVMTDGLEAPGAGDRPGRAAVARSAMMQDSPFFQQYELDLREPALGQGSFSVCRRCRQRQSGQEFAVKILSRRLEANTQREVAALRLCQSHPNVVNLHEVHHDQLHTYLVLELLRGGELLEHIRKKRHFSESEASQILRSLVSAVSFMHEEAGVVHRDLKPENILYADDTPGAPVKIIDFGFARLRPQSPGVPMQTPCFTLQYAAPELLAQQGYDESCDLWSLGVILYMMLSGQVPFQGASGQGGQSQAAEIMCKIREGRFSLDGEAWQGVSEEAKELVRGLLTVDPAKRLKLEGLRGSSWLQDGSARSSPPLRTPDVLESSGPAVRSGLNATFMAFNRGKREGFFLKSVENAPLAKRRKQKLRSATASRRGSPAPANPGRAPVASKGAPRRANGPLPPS

HIPK3 (human) = HIPK3 (human) (UniProt Q9H422)
GSG2 (human) = GSG2 (human) (UniProt Q8TF76)
CDK9 CCNT1 (human) = CDK9 CCNT1 (human) (UniProt P50750+O60563)
ALK (human) = ALK (human) (UniProt Q9UM73)
MARK2 (human) = MARK2 (human) (UniProt Q7KZI7)
Sequence of MARK2 (human) (Q7KZI7 whole entry, looked up): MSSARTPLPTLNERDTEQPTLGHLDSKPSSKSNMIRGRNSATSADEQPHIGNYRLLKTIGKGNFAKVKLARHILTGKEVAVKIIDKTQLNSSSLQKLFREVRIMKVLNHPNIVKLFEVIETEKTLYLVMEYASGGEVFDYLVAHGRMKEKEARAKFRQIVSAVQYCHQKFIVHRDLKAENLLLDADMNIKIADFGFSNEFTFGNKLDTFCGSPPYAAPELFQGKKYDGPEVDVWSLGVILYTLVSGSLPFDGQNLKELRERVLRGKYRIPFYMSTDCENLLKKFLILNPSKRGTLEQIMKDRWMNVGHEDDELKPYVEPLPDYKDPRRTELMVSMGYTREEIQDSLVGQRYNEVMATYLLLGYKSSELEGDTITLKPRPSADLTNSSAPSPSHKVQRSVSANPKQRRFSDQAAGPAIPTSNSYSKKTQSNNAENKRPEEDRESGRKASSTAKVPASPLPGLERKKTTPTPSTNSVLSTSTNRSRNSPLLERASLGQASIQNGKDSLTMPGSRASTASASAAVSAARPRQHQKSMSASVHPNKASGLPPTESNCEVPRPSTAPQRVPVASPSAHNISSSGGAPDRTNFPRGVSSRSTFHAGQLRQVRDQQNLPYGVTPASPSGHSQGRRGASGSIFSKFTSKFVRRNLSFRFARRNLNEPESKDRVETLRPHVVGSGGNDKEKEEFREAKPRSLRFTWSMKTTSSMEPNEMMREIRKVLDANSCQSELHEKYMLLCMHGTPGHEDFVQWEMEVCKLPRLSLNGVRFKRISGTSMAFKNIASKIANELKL

ABL2 (human) = ABL2 (human) (UniProt P42684)
EPHB2 (human) = EPHB2 (human) (UniProt P29323)
CDK7 CCNH MNAT1 (human) = CDK7 CCNH MNAT1 (human) (UniProt P50613+P51948+P51946)
NEK9 (human) = NEK9 (human) (UniProt Q8TD19)
TLK2 (human) = TLK2 (human) (UniProt Q86UE8)
VRK1 (human) = VRK1 (human) (UniProt Q99986)
Sequence of VRK1 (human) (Q99986 whole entry, looked up): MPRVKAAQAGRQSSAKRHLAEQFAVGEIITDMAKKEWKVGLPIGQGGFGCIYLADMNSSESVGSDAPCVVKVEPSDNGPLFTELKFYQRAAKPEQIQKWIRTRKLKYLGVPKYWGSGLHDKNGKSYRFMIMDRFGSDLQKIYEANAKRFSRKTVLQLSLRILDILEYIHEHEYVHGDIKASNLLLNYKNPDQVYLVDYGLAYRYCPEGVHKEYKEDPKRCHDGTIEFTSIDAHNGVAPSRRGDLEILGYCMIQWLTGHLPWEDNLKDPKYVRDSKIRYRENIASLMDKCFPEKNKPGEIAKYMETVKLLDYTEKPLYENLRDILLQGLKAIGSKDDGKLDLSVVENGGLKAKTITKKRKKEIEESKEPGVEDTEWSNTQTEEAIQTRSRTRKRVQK

MAP3K11 (human) = MAP3K11 (human) (UniProt Q16584)
RPS6KA5 KD2 (human) = RPS6KA5 KD2 (human) (UniProt O75582)
EPHA7 (human) = EPHA7 (human) (UniProt Q15375)
PRKCB1 (human) = PRKCB1 (human) (UniProt P05771)
MET (human) = MET (human) (UniProt P08581)
Sequence of MET (human) (P08581 whole entry, looked up): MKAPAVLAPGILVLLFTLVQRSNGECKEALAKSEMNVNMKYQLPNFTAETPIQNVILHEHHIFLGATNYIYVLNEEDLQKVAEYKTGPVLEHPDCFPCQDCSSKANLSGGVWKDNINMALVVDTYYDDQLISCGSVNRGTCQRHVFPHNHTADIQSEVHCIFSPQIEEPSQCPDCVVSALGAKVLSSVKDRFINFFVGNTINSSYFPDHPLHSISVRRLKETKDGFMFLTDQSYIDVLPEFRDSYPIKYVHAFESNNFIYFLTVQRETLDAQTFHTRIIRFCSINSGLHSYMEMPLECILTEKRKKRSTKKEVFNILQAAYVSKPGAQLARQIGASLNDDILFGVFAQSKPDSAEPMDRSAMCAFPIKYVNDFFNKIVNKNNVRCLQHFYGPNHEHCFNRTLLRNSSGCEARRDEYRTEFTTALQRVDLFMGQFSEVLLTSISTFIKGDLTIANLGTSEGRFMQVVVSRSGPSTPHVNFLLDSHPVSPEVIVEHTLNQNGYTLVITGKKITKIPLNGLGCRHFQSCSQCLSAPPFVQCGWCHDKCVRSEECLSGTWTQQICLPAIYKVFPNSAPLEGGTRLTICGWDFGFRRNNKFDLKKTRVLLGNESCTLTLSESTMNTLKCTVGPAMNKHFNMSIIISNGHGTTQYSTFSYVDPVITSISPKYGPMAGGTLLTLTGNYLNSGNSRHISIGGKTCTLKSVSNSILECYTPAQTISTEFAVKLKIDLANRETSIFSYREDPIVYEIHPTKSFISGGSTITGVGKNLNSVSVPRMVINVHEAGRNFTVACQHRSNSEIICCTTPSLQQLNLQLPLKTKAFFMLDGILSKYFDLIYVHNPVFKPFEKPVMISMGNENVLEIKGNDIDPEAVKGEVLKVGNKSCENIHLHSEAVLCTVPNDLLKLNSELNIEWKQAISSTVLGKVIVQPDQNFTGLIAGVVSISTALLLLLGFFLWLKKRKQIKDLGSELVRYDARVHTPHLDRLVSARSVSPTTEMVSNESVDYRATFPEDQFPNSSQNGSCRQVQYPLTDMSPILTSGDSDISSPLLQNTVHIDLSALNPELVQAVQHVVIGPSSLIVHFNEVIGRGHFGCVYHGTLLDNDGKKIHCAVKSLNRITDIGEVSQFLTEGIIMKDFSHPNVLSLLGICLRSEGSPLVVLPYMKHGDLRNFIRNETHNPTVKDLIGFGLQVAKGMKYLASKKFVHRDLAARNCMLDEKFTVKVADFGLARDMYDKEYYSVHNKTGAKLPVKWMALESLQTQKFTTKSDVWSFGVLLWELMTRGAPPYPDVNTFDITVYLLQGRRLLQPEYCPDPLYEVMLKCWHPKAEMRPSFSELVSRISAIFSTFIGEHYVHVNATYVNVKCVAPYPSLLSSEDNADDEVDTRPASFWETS

MUSK (human) = MUSK (human) (UniProt O15146)
NEK4 (human) = NEK4 (human) (UniProt P51957)
DAPK1 (human) = DAPK1 (human) (UniProt P53355)
CDK4 CCND1 (human) = CDK4 CCND1 (human) (UniProt P24385+P11802)
MAP3K14 (human) = MAP3K14 (human) (UniProt Q99558)
Sequence of MAP3K14 (human) (Q99558 whole entry, looked up): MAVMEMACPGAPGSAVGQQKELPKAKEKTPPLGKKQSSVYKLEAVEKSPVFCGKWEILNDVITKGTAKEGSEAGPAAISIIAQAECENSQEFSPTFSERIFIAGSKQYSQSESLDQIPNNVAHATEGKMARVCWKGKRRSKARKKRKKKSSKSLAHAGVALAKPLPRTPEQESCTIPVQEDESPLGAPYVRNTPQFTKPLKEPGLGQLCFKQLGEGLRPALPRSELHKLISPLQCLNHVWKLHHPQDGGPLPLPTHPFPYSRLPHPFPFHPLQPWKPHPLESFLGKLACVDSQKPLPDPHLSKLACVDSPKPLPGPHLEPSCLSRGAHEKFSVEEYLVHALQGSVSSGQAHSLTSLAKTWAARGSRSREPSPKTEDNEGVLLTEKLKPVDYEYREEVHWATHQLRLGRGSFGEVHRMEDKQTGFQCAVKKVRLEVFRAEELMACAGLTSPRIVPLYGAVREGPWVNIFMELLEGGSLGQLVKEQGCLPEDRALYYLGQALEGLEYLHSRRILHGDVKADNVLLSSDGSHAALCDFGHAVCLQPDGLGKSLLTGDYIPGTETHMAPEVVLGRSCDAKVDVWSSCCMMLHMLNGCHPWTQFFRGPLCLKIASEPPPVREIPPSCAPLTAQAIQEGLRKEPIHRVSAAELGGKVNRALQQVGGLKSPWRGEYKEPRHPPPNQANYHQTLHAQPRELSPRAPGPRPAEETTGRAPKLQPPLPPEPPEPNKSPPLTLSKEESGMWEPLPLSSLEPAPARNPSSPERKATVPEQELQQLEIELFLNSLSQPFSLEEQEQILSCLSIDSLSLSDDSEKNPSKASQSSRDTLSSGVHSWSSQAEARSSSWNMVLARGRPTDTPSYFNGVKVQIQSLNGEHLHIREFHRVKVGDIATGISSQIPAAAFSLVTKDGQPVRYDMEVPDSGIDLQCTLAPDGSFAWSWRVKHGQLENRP

GSK3B (human) = GSK3B (human) (UniProt P49841)

O=C1NC(=O)/C(=C/c2ccc3c(c2)OC(F)(F)O3)S1
residual activity (AKT3 (human)): 103%
residual activity (CSF1R (human)): 106%
residual activity (SRC (human)): 98.4%
residual activity (MAP3K7 TAB1 (human)): 95.3%
residual activity (CLK3 (human)): 96.8%
residual activity (EPHB4 (human)): 100%
residual activity (PRKD3 (human)): 91.4%
residual activity (MAPK1 (human)): 85.7%
residual activity (MINK1 (human)): 90.1%
residual activity (MAPK8 (human)): 95.1%
residual activity (NTRK3 (human)): 98%
residual activity (ROS1 (human)): 88.5%
residual activity (RIPK2 (human)): 88.2%
residual activity (MLTK (human)): 97.6%
residual activity (TAOK2 (human)): 96.9%
residual activity (ROCK1 (human)): 93.7%
residual activity (CAMK2A (human)): 96.8%
residual activity (CDK5 CDK5R1 p35 (human)): 103%
residual activity (RPS6KA4 KD2 (human)): 108%
residual activity (HIPK3 (human)): 90.1%
residual activity (GSG2 (human)): 96.7%
residual activity (CDK9 CCNT1 (human)): 98.7%
residual activity (ALK (human)): 83.4%
residual activity (MARK2 (human)): 96.8%
residual activity (ABL2 (human)): 96%
residual activity (EPHB2 (human)): 95.8%
residual activity (CDK7 CCNH MNAT1 (human)): 98.3%
residual activity (NEK9 (human)): 109%
residual activity (TLK2 (human)): 104%
residual activity (VRK1 (human)): 85.6%
residual activity (MAP3K11 (human)): 97.8%
residual activity (RPS6KA5 KD2 (human)): 91.1%
residual activity (EPHA7 (human)): 98.7%
residual activity (PRKCB1 (human)): 97.7%
residual activity (MET (human)): 96.2%
residual activity (MUSK (human)): 70.9%
residual activity (NEK4 (human)): 97.8%
residual activity (DAPK1 (human)): 120%
residual activity (CDK4 CCND1 (human)): 97.1%
residual activity (MAP3K14 (human)): 106%
residual activity (GSK3B (human)): 92.3%

Nc1ncnc2c1c(-c1ccc(Oc3ccccc3)cc1)cn2C1CCCC1
residual activity (AKT3 (human)): 98.2%
residual activity (CSF1R (human)): 61.3%
residual activity (SRC (human)): 13.4%
residual activity (MAP3K7 TAB1 (human)): 92.3%
residual activity (CLK3 (human)): 96.9%
residual activity (EPHB4 (human)): 98.3%
residual activity (PRKD3 (human)): 89.4%
residual activity (MAPK1 (human)): 80.7%
residual activity (MINK1 (human)): 105%
residual activity (MAPK8 (human)): 117%
residual activity (NTRK3 (human)): 67.9%
residual activity (ROS1 (human)): 101%
residual activity (RIPK2 (human)): 28.6%
residual activity (MLTK (human)): 70.3%
residual activity (TAOK2 (human)): 104%
residual activity (ROCK1 (human)): 106%
residual activity (CAMK2A (human)): 113%
residual activity (RPS6KA4 KD2 (human)): 105%
residual activity (HIPK3 (human)): 116%
residual activity (GSG2 (human)): 94.6%
residual activity (CDK9 CCNT1 (human)): 104%
residual activity (ALK (human)): 80.6%
residual activity (MARK2 (human)): 86.4%
residual activity (ABL2 (human)): 84.8%
residual activity (EPHB2 (human)): 90.5%
residual activity (CDK7 CCNH MNAT1 (human)): 96.8%
residual activity (NEK9 (human)): 96.6%
residual activity (TLK2 (human)): 112%
residual activity (VRK1 (human)): 84.8%
residual activity (MAP3K11 (human)): 92.9%
residual activity (RPS6KA5 KD2 (human)): 90.5%
residual activity (EPHA7 (human)): 98.3%
residual activity (PRKCB1 (human)): 92.8%
residual activity (MET (human)): 110%
residual activity (MUSK (human)): 115%
residual activity (NEK4 (human)): 92.1%
residual activity (DAPK1 (human)): 79.1%
residual activity (CDK4 CCND1 (human)): 121%
residual activity (MAP3K14 (human)): 113%
residual activity (GSK3B (human)): 99.2%

COc1cc2ncnc(Nc3cccc(Cl)c3)c2cc1OC
residual activity (AKT3 (human)): 98.3%
residual activity (CSF1R (human)): 98.2%
residual activity (SRC (human)): 71.9%
residual activity (MAP3K7 TAB1 (human)): 96.9%
residual activity (CLK3 (human)): 90.5%
residual activity (EPHB4 (human)): 59.7%
residual activity (PRKD3 (human)): 86.5%
residual activity (MAPK1 (human)): 91.7%
residual activity (MINK1 (human)): 83.1%
residual activity (MAPK8 (human)): 93.8%
residual activity (NTRK3 (human)): 86.3%
residual activity (ROS1 (human)): 91.2%
residual activity (RIPK2 (human)): 45.4%
residual activity (MLTK (human)): 99.3%
residual activity (TAOK2 (human)): 96.1%
residual activity (ROCK1 (human)): 95.9%
residual activity (CAMK2A (human)): 98.2%
residual activity (CDK5 CDK5R1 p35 (human)): 91%
residual activity (RPS6KA4 KD2 (human)): 94.5%
residual activity (HIPK3 (human)): 98.9%
residual activity (GSG2 (human)): 84.8%
residual activity (CDK9 CCNT1 (human)): 85.1%
residual activity (ALK (human)): 91.5%
residual activity (ABL2 (human)): 52.6%
residual activity (EPHB2 (human)): 98.1%
residual activity (CDK7 CCNH MNAT1 (human)): 99.9%
residual activity (NEK9 (human)): 82.6%
residual activity (TLK2 (human)): 93.9%
residual activity (VRK1 (human)): 105%
residual activity (MAP3K11 (human)): 84.1%
residual activity (RPS6KA5 KD2 (human)): 97.8%
residual activity (EPHA7 (human)): 65%
residual activity (PRKCB1 (human)): 103%
residual activity (MET (human)): 75.5%
residual activity (MUSK (human)): 88.3%
residual activity (NEK4 (human)): 87.5%
residual activity (DAPK1 (human)): 108%
residual activity (CDK4 CCND1 (human)): 103%
residual activity (MAP3K14 (human)): 107%
residual activity (GSK3B (human)): 98.7%

c1ccc(-c2n[nH]cc2-c2ccnc3ccccc23)nc1
residual activity (AKT3 (human)): 92.6%
residual activity (CSF1R (human)): 95.5%
residual activity (SRC (human)): 94.7%
residual activity (MAP3K7 TAB1 (human)): 98.4%
residual activity (CLK3 (human)): 105%
residual activity (EPHB4 (human)): 89.1%
residual activity (PRKD3 (human)): 56.1%
residual activity (MAPK1 (human)): 108%
residual activity (MINK1 (human)): 84.1%
residual activity (NTRK3 (human)): 92.7%
residual activity (ROS1 (human)): 102%
residual activity (RIPK2 (human)): 64.7%
residual activity (MLTK (human)): 78%
residual activity (TAOK2 (human)): 96.8%
residual activity (ROCK1 (human)): 103%
residual activity (CAMK2A (human)): 102%
residual activity (CDK5 CDK5R1 p35 (human)): 98.6%
residual activity (RPS6KA4 KD2 (human)): 87.2%
residual activity (HIPK3 (human)): 97%
residual activity (GSG2 (human)): 90.8%
residual activity (CDK9 CCNT1 (human)): 80%
residual activity (ALK (human)): 111%
residual activity (MARK2 (human)): 102%
residual activity (ABL2 (human)): 67.8%
residual activity (EPHB2 (human)): 103%
residual activity (CDK7 CCNH MNAT1 (human)): 104%
residual activity (NEK9 (human)): 94.7%
residual activity (TLK2 (human)): 98.6%
residual activity (VRK1 (human)): 92.6%
residual activity (MAP3K11 (human)): 96.5%
residual activity (RPS6KA5 KD2 (human)): 102%
residual activity (EPHA7 (human)): 91.4%
residual activity (PRKCB1 (human)): 102%
residual activity (MET (human)): 94.1%
residual activity (MUSK (human)): 93.4%
residual activity (NEK4 (human)): 95.8%
residual activity (DAPK1 (human)): 111%
residual activity (CDK4 CCND1 (human)): 101%
residual activity (MAP3K14 (human)): 116%
residual activity (GSK3B (human)): 95.2%

Oc1cccc(-c2nc(N3CCOCC3)c3oc4ncccc4c3n2)c1
residual activity (AKT3 (human)): 99%
residual activity (CSF1R (human)): 108%
residual activity (SRC (human)): 97.2%
residual activity (MAP3K7 TAB1 (human)): 97.4%
residual activity (CLK3 (human)): 93.1%
residual activity (EPHB4 (human)): 104%
residual activity (PRKD3 (human)): 92.9%
residual activity (MAPK1 (human)): 89%
residual activity (MINK1 (human)): 96%
residual activity (MAPK8 (human)): 89.8%
residual activity (NTRK3 (human)): 91.1%
residual activity (ROS1 (human)): 93.1%
residual activity (RIPK2 (human)): 87.4%
residual activity (MLTK (human)): 96.2%
residual activity (TAOK2 (human)): 92.2%
residual activity (ROCK1 (human)): 94.9%
residual activity (CAMK2A (human)): 93.7%
residual activity (CDK5 CDK5R1 p35 (human)): 101%
residual activity (RPS6KA4 KD2 (human)): 104%
residual activity (HIPK3 (human)): 93.8%
residual activity (GSG2 (human)): 90.3%
residual activity (CDK9 CCNT1 (human)): 105%
residual activity (ALK (human)): 90.5%
residual activity (MARK2 (human)): 92.9%
residual activity (ABL2 (human)): 94.9%
residual activity (EPHB2 (human)): 88.6%
residual activity (CDK7 CCNH MNAT1 (human)): 99.9%
residual activity (NEK9 (human)): 99.3%
residual activity (TLK2 (human)): 102%
residual activity (VRK1 (human)): 98.4%
residual activity (MAP3K11 (human)): 96.5%
residual activity (RPS6KA5 KD2 (human)): 86.5%
residual activity (EPHA7 (human)): 93.9%
residual activity (PRKCB1 (human)): 97.8%
residual activity (MET (human)): 97.8%
residual activity (MUSK (human)): 87.8%
residual activity (NEK4 (human)): 90.4%
residual activity (DAPK1 (human)): 78%
residual activity (CDK4 CCND1 (human)): 102%
residual activity (GSK3B (human)): 94.8%
